Assay results taken from PubChem BioAssay AID330 (DTP/NCI, 2004).
Toxic doses and inconclusive results are not listed. Rule for the calls: active = survival T/C of 150% or more; inactive = T/C below 125% in these data.

Test system: P388 leukemia ip, CD2F1 mice, survival T/C
Assay: NCI In Vivo Anticancer Drug Screen. Data for tumor model P388 Leukemia (intraperitoneal) in CD2F1 (CDF1) mice
Settings: endpoint: median survival time, schedule: Q01DX005 (ip), vehicle: Klucel (hydroxypropylcellulose) (HPC), higher = longer survival
In short: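 Mice carrying the transplanted tumor received test compound or vehicle. Survival was recorded in each group, and the value is the treated-group measurement divided by that of the vehicle-treated control group.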

Measured: T/C

CCc1nc2c(Br)c3oc(CC)nc3c(Br)c2o1
inactive: dose: 60.0 mg/kg/injection 103 % of control | dose: 120.0 mg/kg/injection 100 % of control | dose: 240.0 mg/kg/injection 90 % of control
